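Tested at 5 concentrations; 48 h exposure; 96-well plates; endpoints linearly interpolated, else capped at highest concentration. At the GI50, growth is halved.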 Activity calls are given as the source filed them. No stated cut-off is given here; in the data, active = GI50 up to about 1.1 µM and inactive = higher.
Legend:
Test in all cases: DTP human tumour cell line panel, 48 h
786-0 = test system: 786-0
A498 = test system: A498
A549 = test system: A549
ACHN = test system: ACHN
BT-549 = test system: BT-549
CCRF-CEM = test system: CCRF-CEM
COLO 205 = test system: COLO 205
DU-145 = test system: DU-145
EKVX = test system: EKVX
HCT-116 = test system: HCT-116
HCT-15 = test system: HCT-15
HL-60 = test system: HL-60
HOP-62 = test system: HOP-62
HOP-92 = test system: HOP-92
HT-29 = test system: HT-29
Hs-578T = test system: Hs-578T
IGROV-1 = test system: IGROV-1
K562 = test system: K562
KM12 = test system: KM12
LOX IMVI = test system: LOX IMVI
M14 = test system: M14
MCF7 = test system: MCF7
MDA-MB-231 = test system: MDA-MB-231
MDA-MB-435 = test system: MDA-MB-435
MDA-N = test system: MDA-N
MOLT-4 = test system: MOLT-4
Malme-3M = test system: Malme-3M
NCI-H226 = test system: NCI-H226
NCI-H460 = test system: NCI-H460
NCI-H522 = test system: NCI-H522
NCI/ADR-RES = test system: NCI/ADR-RES
OVCAR-3 = test system: OVCAR-3
OVCAR-4 = test system: OVCAR-4
OVCAR-5 = test system: OVCAR-5
OVCAR-8 = test system: OVCAR-8
PC-3 = test system: PC-3
RPMI-8226 = test system: RPMI-8226
RXF 393 = test system: RXF 393
SF-268 = test system: SF-268
SF-295 = test system: SF-295
SF-539 = test system: SF-539
SK-MEL-28 = test system: SK-MEL-28
SK-MEL-2 = test system: SK-MEL-2
SK-MEL-5 = test system: SK-MEL-5
SK-OV-3 = test system: SK-OV-3
SN12C = test system: SN12C
SNB-19 = test system: SNB-19
SW-620 = test system: SW-620
T47D = test system: T47D
TK-10 = test system: TK-10
U-251 = test system: U-251
UACC-257 = test system: UACC-257
UACC-62 = test system: UACC-62
UO-31 = test system: UO-31
CAKI-1 = test system: CAKI-1
HCC 2998 = test system: HCC 2998
NCI-H23 = test system: NCI-H23
SNB-75 = test system: SNB-75

## N#CCCN(CCC#N)c1ccc(/C=C2\N=C(c3ccccc3)N(c3ccc(Cl)cc3)C2=O)cc1
786-0
  GI50: > 100 µM (inactive)
A498
  GI50: > 100 µM (inactive)
A549
  GI50: > 100 µM (inactive)
ACHN
  GI50: > 100 µM (inactive)
BT-549
  GI50: > 100 µM (inactive)
CCRF-CEM
  GI50: > 100 µM (inactive)
COLO 205
  GI50: > 100 µM (inactive)
DU-145
  GI50: > 100 µM (inactive)
EKVX
  GI50: > 100 µM (inactive)
HCT-116
  GI50: > 100 µM (inactive)
HCT-15
  GI50: > 100 µM
HL-60
  GI50: > 100 µM (inactive)
HOP-62
  GI50: > 100 µM (inactive)
HOP-92
  GI50: > 100 µM (inactive)
HT-29
  GI50: > 100 µM (inactive)
Hs-578T
  GI50: 20.6 µM (inactive)
IGROV-1
  GI50: > 100 µM (inactive)
K562
  GI50: 48 µM (inactive)
KM12
  GI50: 58.7 µM (inactive)
LOX IMVI
  GI50: 2.5 µM (inactive)
M14
  GI50: > 100 µM (inactive)
MCF7
  GI50: > 100 µM (inactive)
MDA-MB-231
  GI50: > 100 µM (inactive)
MDA-MB-435
  GI50: 45.5 µM (inactive)
MDA-N
  GI50: > 100 µM (inactive)
MOLT-4
  GI50: > 100 µM (inactive)
Malme-3M
  GI50: > 100 µM (inactive)
NCI-H226
  GI50: > 100 µM (inactive)
NCI-H460
  GI50: > 100 µM (inactive)
NCI-H522
  GI50: > 100 µM (inactive)
NCI/ADR-RES
  GI50: > 100 µM (inactive)
OVCAR-3
  GI50: > 100 µM (inactive)
OVCAR-4
  GI50: > 100 µM (inactive)
OVCAR-5
  GI50: > 100 µM (inactive)
OVCAR-8
  GI50: > 100 µM (inactive)
PC-3
  GI50: > 100 µM (inactive)
RPMI-8226
  GI50: > 100 µM (inactive)
RXF 393
  GI50: > 100 µM (inactive)
SF-268
  GI50: > 100 µM (inactive)
SF-295
  GI50: 30.3 µM (inactive)
SF-539
  GI50: > 100 µM (inactive)
SK-MEL-28
  GI50: > 100 µM (inactive)
SK-MEL-2
  GI50: 76.6 µM (inactive)
SK-MEL-5
  GI50: 76.7 µM (inactive)
SK-OV-3
  GI50: > 100 µM (inactive)
SN12C
  GI50: > 100 µM (inactive)
SNB-19
  GI50: > 100 µM (inactive)
SW-620
  GI50: > 100 µM (inactive)
T47D
  GI50: > 100 µM (inactive)
TK-10
  GI50: > 100 µM (inactive)
U-251
  GI50: > 100 µM (inactive)
UACC-257
  GI50: > 100 µM (inactive)
UACC-62
  GI50: 39.7 µM (inactive)
UO-31
  GI50: 45.4 µM (inactive)

## COC(=O)C1CC=C(SC(=O)c2ccccc2)N1C(=O)c1ccccc1 (stereo unspecified)
786-0
  GI50: > 100 µM (inactive)
A498
  GI50: > 100 µM (inactive)
A549
  GI50: > 100 µM (inactive)
ACHN
  GI50: > 100 µM (inactive)
BT-549
  GI50: > 100 µM (inactive)
CAKI-1
  GI50: > 100 µM (inactive)
COLO 205
  GI50: > 100 µM (inactive)
DU-145
  GI50: > 100 µM (inactive)
EKVX
  GI50: > 100 µM (inactive)
HCC 2998
  GI50: > 100 µM (inactive)
HCT-116
  GI50: > 100 µM (inactive)
HCT-15
  GI50: > 100 µM
HOP-62
  GI50: > 100 µM (inactive)
HOP-92
  GI50: > 100 µM (inactive)
HT-29
  GI50: > 100 µM (inactive)
Hs-578T
  GI50: > 100 µM (inactive)
IGROV-1
  GI50: > 100 µM (inactive)
K562
  GI50: > 100 µM (inactive)
KM12
  GI50: > 100 µM (inactive)
M14
  GI50: > 100 µM (inactive)
MCF7
  GI50: > 100 µM (inactive)
MDA-MB-231
  GI50: > 100 µM (inactive)
MDA-MB-435
  GI50: > 100 µM (inactive)
MDA-N
  GI50: > 100 µM (inactive)
MOLT-4
  GI50: > 100 µM (inactive)
Malme-3M
  GI50: > 100 µM (inactive)
NCI-H23
  GI50: > 100 µM (inactive)
NCI-H460
  GI50: 39.6 µM (inactive)
NCI-H522
  GI50: > 100 µM (inactive)
NCI/ADR-RES
  GI50: > 100 µM (inactive)
OVCAR-3
  GI50: > 100 µM (inactive)
OVCAR-4
  GI50: > 100 µM (inactive)
OVCAR-5
  GI50: > 100 µM (inactive)
OVCAR-8
  GI50: > 100 µM (inactive)
PC-3
  GI50: > 100 µM (inactive)
RPMI-8226
  GI50: > 100 µM (inactive)
RXF 393
  GI50: > 100 µM (inactive)
SF-268
  GI50: > 100 µM (inactive)
SF-295
  GI50: > 100 µM (inactive)
SK-MEL-28
  GI50: > 100 µM (inactive)
SK-MEL-2
  GI50: > 100 µM (inactive)
SK-MEL-5
  GI50: > 100 µM (inactive)
SK-OV-3
  GI50: > 100 µM (inactive)
SNB-19
  GI50: > 100 µM (inactive)
SNB-75
  GI50: 76 µM (inactive)
SW-620
  GI50: > 100 µM (inactive)
T47D
  GI50: > 100 µM (inactive)
TK-10
  GI50: > 100 µM (inactive)
U-251
  GI50: > 100 µM (inactive)
UACC-257
  GI50: > 100 µM (inactive)
UACC-62
  GI50: > 100 µM (inactive)
UO-31
  GI50: > 100 µM (inactive)

## CC1(C)CC(=O)C(=CNc2nc(-c3cccc([N+](=O)[O-])c3)cs2)C(=O)C1
786-0
  GI50: 15.1 µM (inactive)
A498
  GI50: 13.8 µM (inactive)
A549
  GI50: 66.1 µM (inactive)
ACHN
  GI50: 18.2 µM (inactive)
BT-549
  GI50: 18.7 µM (inactive)
CAKI-1
  GI50: 11.3 µM (inactive)
CCRF-CEM
  GI50: 2 µM (inactive)
COLO 205
  GI50: 14.8 µM (inactive)
DU-145
  GI50: 29.4 µM (inactive)
EKVX
  GI50: 14.7 µM (inactive)
HCC 2998
  GI50: 15.7 µM (inactive)
HCT-116
  GI50: 14.9 µM (inactive)
HCT-15
  GI50: 11.6 µM
HL-60
  GI50: 7.52 µM (inactive)
HOP-62
  GI50: 19.6 µM (inactive)
HOP-92
  GI50: 17.3 µM (inactive)
HT-29
  GI50: 17 µM (inactive)
Hs-578T
  GI50: 18.9 µM (inactive)
IGROV-1
  GI50: 17.6 µM (inactive)
K562
  GI50: 16.6 µM (inactive)
KM12
  GI50: 16.6 µM (inactive)
LOX IMVI
  GI50: 13.7 µM (inactive)
M14
  GI50: 15.8 µM (inactive)
MCF7
  GI50: 15.8 µM (inactive)
MDA-MB-231
  GI50: 18.5 µM (inactive)
MDA-MB-435
  GI50: 21.4 µM (inactive)
MDA-N
  GI50: 17.8 µM (inactive)
MOLT-4
  GI50: 10.5 µM (inactive)
NCI-H226
  GI50: 15.3 µM (inactive)
NCI-H23
  GI50: 18.1 µM (inactive)
NCI-H460
  GI50: 14.7 µM (inactive)
NCI-H522
  GI50: 9.04 µM (inactive)
NCI/ADR-RES
  GI50: 18 µM (inactive)
OVCAR-3
  GI50: 29 µM (inactive)
OVCAR-4
  GI50: 27.5 µM (inactive)
OVCAR-5
  GI50: 46.3 µM (inactive)
OVCAR-8
  GI50: 23.7 µM (inactive)
PC-3
  GI50: 24.8 µM (inactive)
RPMI-8226
  GI50: 17.9 µM (inactive)
RXF 393
  GI50: 21.7 µM (inactive)
SF-268
  GI50: 15 µM (inactive)
SF-295
  GI50: 37.2 µM (inactive)
SF-539
  GI50: 20.8 µM (inactive)
SK-MEL-2
  GI50: 55.8 µM (inactive)
SK-OV-3
  GI50: 32.7 µM (inactive)
SN12C
  GI50: 18.1 µM (inactive)
SNB-19
  GI50: 15.3 µM (inactive)
SNB-75
  GI50: 14.9 µM (inactive)
SW-620
  GI50: 11.9 µM (inactive)
T47D
  GI50: 18.1 µM (inactive)
TK-10
  GI50: 35.8 µM (inactive)
U-251
  GI50: 19.6 µM (inactive)
UACC-257
  GI50: 22.5 µM (inactive)
UACC-62
  GI50: 16 µM (inactive)
UO-31
  GI50: 25.6 µM (inactive)

Reference: ChEMBL document CHEMBL1201862, “PubChem BioAssay data set” (2004)
